In patent US20240181068A1, “SELECTIVE NEUTRAL PH INHIBITOR OF CATHEPSIN B” (The Regents of the University of California, priority 2021, published 2024):
Entries after “also recorded” stand apart in the source; their conditions may differ.

Experiments:
[1] = molecular target: T1, cathepsin H (Homo sapiens, UniProt P09668); experiment: Specificity of inhibitors: cathepsin H (Arg-AMC substrate); format: biochemical
T1 construct: purchased R&D Systems 75116-CY-010
Experimental: (§1) Specificity of inhibitors for other cysteine cathepsin proteases. The effects of Z-Arg-Lys-AOMK and Z-Glu-Lys-AOMK on cathepsin V, L, K, S, X, H and C activities were assessed. IC50 values were calculated at pH 4.6 and pH 7.2 conditions, consisting of 40 mM citrate phosphate, 1 mM EDTA, 100 mM NaCl, and 5 mM DTT. The inhibitor concentrations ranged from 16.38 μM to 256 nM with 2-fold serial dilutions. […] Cathepsin V (0.04 ng/μL), cathepsin L (0.03 ng/μL), cathepsin K (0.10 ng/μL), cathepsin S (0.20 ng/uL) were assayed with 40 μM Z-Phe-Arg-AMC. Cathepsin X (0.20 ng/uL), cathepsin C (0.51 ng/uL) and cathepsin H (0.1 ng/μL) were assayed with 40 μM of MCA-Arg-Pro-Pro-Gly-Phe-Ser-Ala-Phe-Lys(Dnp)OH (SEQ ID NO: 2), Gly-Arg-AMC, and Arg-AMC, respectively. Activation of pro-cathepsin H to cathepsin H was conducted by incubation of cathepsin H (4.4 ng/μL) with cathepsin L (1.1 ng/μL) at RT for 2 hrs in activation buffer (20 mM citrate phosphate pH 6.0, 100 mM NaCl, and 5 mM DTT). Cathepsin C (13.78 ng/μL) was activated by incubation with cathepsin L (3.4 ng/μL) at RT for one hr in activation buffer (20 mM citrate phosphate, pH 6.0, 100 mM NaCl, 5 mM DTT). […] For all assays containing peptide-AMC substrates the fluorescent microplate reader settings were the same as outlined above for cathepsin B. For the cathepsin X assay, the plate reader was set to excitation 320 nm, emission 400 nm, gain 105, top optics and read height 1 mm. To convert RFU/s to picomol/min, 10 μM to 0.005 μM (2-fold serial dilution) of MCA-Arg-Pro-Pro-Gly-Phe-Ser-Ala-Phe-Lys(Dnp)OH (SEQ ID NO: 2) was fully hydrolyzed with excess cathepsin X and a standard curve was generated using the total fluorescence values calculated at each concentration.

[2] = molecular target: T2, cathepsin L (Homo sapiens, UniProt P07711); experiment: Specificity of inhibitors: cathepsin L (Z-Phe-Arg-AMC substrate); format: biochemical
T2 construct: purchased R&D Systems 952-CY-010
Experimental: as §1

[3] = molecular target: T3, cathepsin S (Homo sapiens, UniProt P25774); experiment: Specificity of inhibitors: cathepsin S (Z-Phe-Arg-AMC substrate); format: biochemical
T3 construct: purchased R&D Systems 1183-CY-010
Experimental: as §1

[4] = molecular target: T4, cathepsin B (Homo sapiens, UniProt P07858); experiment: Inhibition of peptide library cleavages characterized by MSP-MS; format: biochemical; settings: 64 nM inhibitor
T4 construct: purchased R&D Systems 953-CY-010
Experimental: Cathepsin B cleavage site analysis by multiplex substrate profiling by mass spectrometry (MSP-MS). Cathepsin B activity (activated) was titrated with E64c to calculate the concentration of active cathepsin B. For MSP-MS assays, cathepsin B (0.1 ng/μL, activated) was incubated with a peptide library of 228 14-mer peptides, each at 0.5 μM peptide, in buffer consisting of 50 mM citrate phosphate of pH 7.2 or pH 4.6, 1 mM EDTA, 100 mM NaCl and 4 mM DTT (total volume of 46 μL). After incubation for […] at 25° C., 20 μL aliquots were removed and combined with 80 μL of 8 M urea. An inactivated cathepsin B control consisted of cathepsin B in assay buffer combined with 8 M urea for 60 minutes at 25° C. for denaturation, followed by addition of the peptide library. After incubation, samples were acidified by addition of 40 μL of 2% FA, desalted using C18 LTS Tips (Rainin), evaporated to dryness in a vacuum centrifuge, and stored at −70° C. Samples were resuspended in 20 μL of 0.1% FA (solvent A) and 1 μL was used for LC-MS/MS analysis. All MSP-MS conditions were conducted in quadruplicate assays.
Inhibitor inhibition of peptide cleavages characterized by MSP-MS. […]

[5] = molecular target: T5, cathepsin B in human neuroblastoma cells (SHSY5Y) (Homo sapiens, UniProt P07858); experiment: Neuroblastoma cells incubated with inhibitors, then cathepsin B assay; format: cell-based
T5 construct: endogenous in cells; host or cells: SH-SY5Y human neuroblastoma cells
Experimental: Cathepsin B in human neuroblastoma cells treated with inhibitors. Neuroblastoma cells (human SHSY5Y) were grown in media consisting of 50% MEMalpha, 50% F12-K, 10% heat-inactivated FBS at 37° C. in an atmosphere of 95% air and 5% CO2. Firstly, cell homogenates were prepared by collection of cells in 0.32 M sucrose and freeze-thawing. Secondly, cells were incubated with Z-Arg-Lys-AOMK or CA-074Me for 6 hours at 37° C., and washed 3 times in phosphate-buffered saline and homogenates were prepared in 0.32 M sucrose with freeze-thawing. CA-074Me is a methyl ester form of the active CA-074 selective inhibitor of cathepsin B (70); CA-074Me penetrates the cell and is converted by intracellular esterases to CA-074.
Cathepsin B activity in the homogenates were monitored with Z-Arg-Arg-AMC substrate (60 μM) with buffer conditions of 40 mM citrate-phosphate, pH 5.5, 5 mM DTT, 1 mM EDTA, 100 mM NaCl, and 1.2% DMSO, followed by incubation at 37° C. for 30 minutes and reading of AMC fluorescence. CA-074-senstive activity was monitored to indicate cathepsin B activity, since CA-074 is a selective inhibitor of this enzyme (70). Protein content was measured in homogenates with the DC protein assay kit. Cathepsin B specific activity was calculated as nmol AMC/μg/min, and reported as the mean±SD (with analyses for statistical significance, p<0.05 by student's t-test).

T1 sequence (P09668 116-335 limits assumed, other chains not shown): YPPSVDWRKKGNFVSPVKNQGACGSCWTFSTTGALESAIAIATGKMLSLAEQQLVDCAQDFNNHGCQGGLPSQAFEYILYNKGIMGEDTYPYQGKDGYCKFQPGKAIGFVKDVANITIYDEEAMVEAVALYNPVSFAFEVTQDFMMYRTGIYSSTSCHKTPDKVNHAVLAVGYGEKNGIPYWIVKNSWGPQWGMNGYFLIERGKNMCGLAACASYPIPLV
T2 sequence (P07711 114-333): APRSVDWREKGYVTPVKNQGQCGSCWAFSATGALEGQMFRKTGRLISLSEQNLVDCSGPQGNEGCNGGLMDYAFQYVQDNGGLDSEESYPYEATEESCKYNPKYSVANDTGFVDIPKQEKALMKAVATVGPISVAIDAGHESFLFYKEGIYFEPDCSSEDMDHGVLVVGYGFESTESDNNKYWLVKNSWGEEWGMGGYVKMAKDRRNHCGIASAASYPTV
T3 sequence (P25774 115-331): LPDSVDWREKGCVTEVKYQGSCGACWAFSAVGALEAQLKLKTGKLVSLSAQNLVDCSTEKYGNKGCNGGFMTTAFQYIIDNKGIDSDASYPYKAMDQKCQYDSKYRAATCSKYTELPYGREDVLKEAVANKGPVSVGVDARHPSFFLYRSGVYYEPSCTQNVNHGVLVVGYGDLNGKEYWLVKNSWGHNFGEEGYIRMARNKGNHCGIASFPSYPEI

IC50 ([1]; cathepsin H, pH 4.6): > 16 µM | IC50 ([1]; cathepsin H, pH 7.2): > 16 µM | inhibition at 16 µM ([1]; cathepsin H, pH 7.2, 16,000 nM inhibitor): 29% | inhibition of cathepsin H ([1]; pH 4.6, inhibitor at 16 μM): no inhibition | inhibition of cathepsin H ([1]; pH 7.2, inhibitor at 16 μM): minimally inhibited | IC50 ([2]; cathepsin L, pH 4.6): > 16 µM | inhibition at 16 µM ([2]; cathepsin L, pH 4.6, 16,000 nM inhibitor): 32% | inhibition of cathepsin L ([2]; pH 4.6, inhibitor at 16 μM): minimal inhibition | IC50 ([3]; cathepsin S, pH 4.6): > 16 µM | inhibition at 16 µM ([3]; cathepsin S, pH 4.6, 16,000 nM inhibitor): 13% | inhibition of cathepsin S ([3]; pH 4.6, inhibitor at 16 μM): minimal inhibition | fold more potent for cathepsin B than cathepsin S ([3]; pH 7.2, from IC50): 110 fold | inhibition of cellular cathepsin B activity ([5]; cells incubated with 50 μM inhibitor for 6 hrs, washed, homogenate assayed with Z-Arg-Arg-AMC): completely inhibited | cell permeability ([5]; neuroblastoma cells, 50 μM, 6 hrs): cell permeable
SMILES: Cc1cccc(C)c1C(=O)OCC(=O)C(CCCCN)NC(=O)C(CCCNC(=N)N)NC(=O)OCc1ccccc1 (stereo not drawn) [Z-Arg-Lys-AOMK]
inhibition of cathepsin B cleavage of peptide library substrates ([4]; pH 4.6): does not inhibit; also recorded: did not inhibit | inhibition of cathepsin B cleavage of peptide library substrates ([4]; pH 7.2, 1 hr incubation): inhibits; also recorded: completely inhibited
